Columns and labels:
Assay in all cases: relative viability (nuclei count vs DMSO), 5 days (fraction); higher = more cells survive
Venetoclax + Foretinib = compound: CC1(C)CCC(CN2CCN(c3ccc(C(=O)NS(=O)(=O)c4ccc(NCC5CCOCC5)c([N+](=O)[O-])c4)c(Oc4cnc5[nH]ccc5c4)c3)CC2)=C(c2ccc(Cl)cc2)C1 [Venetoclax] + COc1cc2c(Oc3ccc(NC(=O)C4(C(=O)Nc5ccc(F)cc5)CC4)cc3F)ccnc2cc1OCCCN1CCOCC1 [Foretinib] (partner 0.25 µM)
Method in brief: (§1)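 Nuclei were stained with Hoechst during a one-step fixation (final 0.05% Triton X-100, 1% formaldehyde, 1 ug/ml Hoechst) carried out 5 days after dosing, then counted on 4× images. The cells, lung cancer lines in 1536-well plates, had been dosed by pin tool the day after seeding with one drug alone or a fixed anchor-drug dose plus five library-drug doses (not always all listed) in √10 steps. Relative viability is the nuclei count in treated wells divided by that in vehicle wells, and each value is the median of duplicate plates.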

Venetoclax + Lapatinib = compound: CC1(C)CCC(CN2CCN(c3ccc(C(=O)NS(=O)(=O)c4ccc(NCC5CCOCC5)c([N+](=O)[O-])c4)c(Oc4cnc5[nH]ccc5c4)c3)CC2)=C(c2ccc(Cl)cc2)C1 [Venetoclax] + CS(=O)(=O)CCNCc1ccc(-c2ccc3ncnc(Nc4ccc(OCc5cccc(F)c5)c(Cl)c4)c3c2)o1 [Lapatinib] (partner 2 µM)
Method in brief: as §1

Selumetinib + OSI-027 = compound: Cn1cnc2c(F)c(Nc3ccc(Br)cc3Cl)c(C(=O)NOCCO)cc21 [Selumetinib] + COc1cccc2cc(-c3nc([C@H]4CC[C@H](C(=O)O)CC4)n4ncnc(N)c34)[nH]c12 [OSI-027] (partner 0.5 µM)
Method in brief: as §1

Selumetinib + AZD7762 = compound: Cn1cnc2c(F)c(Nc3ccc(Br)cc3Cl)c(C(=O)NOCCO)cc21 [Selumetinib] + NC(=O)Nc1cc(-c2cccc(F)c2)sc1C(=O)N[C@H]1CCCNC1 [AZD7762] (partner 0.2 µM)
Method in brief: as §1

Cell Line | relative viability (Venetoclax + Foretinib; first compound 0.01 µM) | relative viability (Venetoclax + Foretinib; first compound 0.03162 µM) | relative viability (Venetoclax + Foretinib; first compound 0.1 µM) | relative viability (Venetoclax + Foretinib; first compound 0.3162 µM) | relative viability (Venetoclax + Foretinib; first compound 1 µM) | relative viability (Venetoclax + Lapatinib; first compound 0.01 µM) | relative viability (Venetoclax + Lapatinib; first compound 0.03162 µM) | relative viability (Venetoclax + Lapatinib; first compound 0.1 µM) | relative viability (Venetoclax + Lapatinib; first compound 0.3162 µM) | relative viability (Venetoclax + Lapatinib; first compound 1 µM) | relative viability (Selumetinib + OSI-027; first compound 0.02 µM) | relative viability (Selumetinib + OSI-027; first compound 0.06325 µM) | relative viability (Selumetinib + OSI-027; first compound 0.2 µM) | relative viability (Selumetinib + OSI-027; first compound 0.6325 µM) | relative viability (Selumetinib + AZD7762; first compound 0.02 µM) | relative viability (Selumetinib + AZD7762; first compound 0.06325 µM) | relative viability (Selumetinib + AZD7762; first compound 0.2 µM) | relative viability (Selumetinib + AZD7762; first compound 0.6325 µM)
LC-2-ad | 1.04 | 0.95 | 0.938 | 0.947 | 0.904 | 0.986 | 0.899 | 0.876 | 0.973 | 0.938 | 0.828 | 0.662 | 0.631 | 0.726 | 0.687 | 0.633 | 0.572 | 0.477
LCLC-97TM1 | 0.913 | 1.03 | 0.918 | 0.981 | 0.782 | – | 1 | 0.579 | 0.868 | 0.814 | 0.487 | 0.386 | 0.325 | 0.249 | 0.244 | 0.179 | 0.219 | 0.136
LK-2 | 1.15 | 1.34 | 1.27 | 1.18 | 0.891 | 0.973 | 0.99 | 0.846 | 0.894 | 0.767 | 0.2 | 0.229 | 0.203 | 0.189 | 0.474 | 0.425 | 0.502 | 0.243
LOU-NH91 | 0.895 | 0.969 | 0.97 | 0.94 | 0.911 | 0.757 | 0.843 | 0.737 | 0.778 | 0.75 | 0.701 | 0.68 | 0.646 | 0.615 | 0.754 | 0.758 | 0.696 | 0.733
LU99A | 0.821 | 0.854 | 0.78 | 0.747 | 0.825 | 0.865 | 1 | 0.884 | 0.885 | 0.986 | 0.338 | 0.308 | 0.331 | 0.301 | 0.461 | 0.367 | 0.397 | 0.342
LXF-289 | 1.05 | 0.975 | 0.991 | 0.941 | 0.913 | 0.956 | 0.925 | 0.874 | 0.906 | 0.809 | 0.796 | 0.73 | 0.648 | 0.519 | 0.958 | 0.887 | 0.829 | 0.85
NCI-H23 | 0.949 | 0.945 | 1.01 | 1.07 | 0.993 | 1.11 | 1.14 | 0.942 | 1.12 | 0.984 | 0.605 | 0.561 | 0.526 | 0.443 | 0.265 | 0.315 | 0.222 | 0.195
NCI-H322M | 0.939 | 1 | 0.915 | 0.972 | 1.05 | 0.659 | 0.601 | 0.552 | 0.533 | 0.57 | 0.487 | 0.434 | 0.477 | 0.45 | 0.453 | 0.443 | 0.45 | 0.527
NCI-H358 | 0.69 | 0.66 | 0.694 | 0.695 | 0.638 | 0.502 | 0.452 | 0.412 | 0.499 | 0.468 | 0.435 | 0.359 | 0.312 | 0.279 | 0.374 | 0.349 | 0.385 | 0.367
NCI-H460 | 0.978 | 0.941 | 0.791 | 0.997 | 0.951 | 0.971 | 0.974 | 0.994 | 0.935 | 0.866 | 0.52 | 0.425 | 0.227 | 0.225 | 0.695 | 0.663 | 0.598 | 0.662
NCI-H596 | 0.77 | 0.877 | 1 | 0.956 | 0.743 | 1.09 | 1.24 | 0.971 | 1.15 | 1.11 | 0.775 | 0.673 | 0.693 | 0.571 | 1.06 | 1.14 | 1.02 | 0.768
NCI-H647 | 1.08 | 1.26 | 1.13 | 1.18 | 1.11 | 1.14 | 1.15 | – | 1.21 | 0.978 | 0.717 | 0.512 | 0.614 | 0.478 | 0.466 | 0.441 | 0.366 | 0.271
NCI-H650 | 0.98 | 0.964 | 1.06 | 0.996 | 1.01 | 0.726 | 0.86 | – | 0.963 | 0.882 | 0.66 | 0.806 | 0.825 | 0.826 | 1.37 | 1.14 | 1.06 | 1.15
NCI-H727 | 1.16 | 0.719 | 0.834 | 1.08 | 0.884 | 0.904 | 1 | 0.857 | 0.791 | 0.753 | 0.603 | 0.395 | 0.332 | 0.427 | 0.455 | 0.428 | 0.322 | 0.427
NCI-H838 | 1.05 | 1.04 | 1.06 | 1.05 | 0.961 | 0.977 | 1.07 | 0.962 | 0.978 | 0.891 | 0.31 | 0.327 | 0.315 | 0.252 | 0.87 | 0.844 | 0.878 | 0.824
NCI-H1355 | 0.967 | 1.05 | 1.05 | 1.02 | 0.978 | 1.02 | 1.02 | 0.968 | 0.93 | 0.993 | 0.343 | 0.33 | 0.278 | 0.277 | 0.818 | 0.711 | 0.748 | 0.565
